From ChEMBL document CHEMBL5385865, “Discovery and optimization of 2-(trifluoromethyl)benzimidazole derivatives as novel ferroptosis inducers in vitro and in vivo” (Eur J Med Chem, 2023)
The source made the active and inactive calls. No cut-off for these calls is given here.

How the values were obtained:
HT-1080 [1] = experiment: Lethality in human HT-1080 cells assessed as cell survival at 10 uM incubated for 24 hrs by MTT assay relative to control; assay type: functional; settings: read-out: Activity
HT-1080 [2] = experiment: Lethality in human HT-1080 cells assessed as inhibition of cell viability incubated for 24 hrs by MTT assay; assay type: functional, cell-based; settings: HT-1080, 24 h
[3] = molecular target: T1, Phospholipid hydroperoxide glutathione peroxidase GPX4 (Homo sapiens) (UniProt P36969); experiment: Inhibition of GPX4 in human HT-1080 cells at 5 uM incubated for 2 hrs; assay type: cell-based
T1 sequence (whole entry): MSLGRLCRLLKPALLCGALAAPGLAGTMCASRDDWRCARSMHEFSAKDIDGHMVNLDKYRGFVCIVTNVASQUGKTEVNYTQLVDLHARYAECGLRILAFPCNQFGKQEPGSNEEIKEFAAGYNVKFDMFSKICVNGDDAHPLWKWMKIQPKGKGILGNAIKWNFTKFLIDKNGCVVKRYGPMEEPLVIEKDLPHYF

[4] = Metabolic stability in human liver microsomes assessed as half life at 1 uM in presence of NADPH by LC-MS analysis; assay type: ADME, Microsome
[5] = Metabolic stability in rat liver microsomes assessed as intrinsic clearance measured per mg protein at 1 uM in presence of NADPH by LC-MS analysis; assay type: ADME, Microsome; settings: read-out: CLH
[6] = molecular target: T2, Cystine/glutamate transporter (Homo sapiens) (UniProt Q9UPY5); experiment: Inhibition of Xc- in human HT-1080 cells assessed as decrease in glutamate release at 5 uM incubated for 3 hrs by Amplex red assay; assay type: cell-based
T2 sequence (whole entry): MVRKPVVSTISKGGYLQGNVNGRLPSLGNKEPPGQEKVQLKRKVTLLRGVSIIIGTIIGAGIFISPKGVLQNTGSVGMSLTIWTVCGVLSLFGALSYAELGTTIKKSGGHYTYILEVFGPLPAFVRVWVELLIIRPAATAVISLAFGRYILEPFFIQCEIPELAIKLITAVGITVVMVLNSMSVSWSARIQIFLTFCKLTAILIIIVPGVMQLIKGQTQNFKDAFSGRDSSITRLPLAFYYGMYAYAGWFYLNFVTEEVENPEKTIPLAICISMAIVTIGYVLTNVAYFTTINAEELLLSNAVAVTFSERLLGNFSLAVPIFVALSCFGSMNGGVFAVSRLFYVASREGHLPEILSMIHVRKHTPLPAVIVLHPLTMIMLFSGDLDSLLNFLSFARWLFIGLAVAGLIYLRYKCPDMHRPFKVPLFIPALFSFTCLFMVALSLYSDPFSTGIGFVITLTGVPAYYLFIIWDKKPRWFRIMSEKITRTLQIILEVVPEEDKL

[7] = Metabolic stability in […] rat microsomes assessed as half life at 1 uM in presence of NADPH by LC-MS analysis; assay type: ADME, Liver, Microsome
[8] = Metabolic stability in human liver microsomes assessed as intrinsic clearance measured per mg protein at 1 uM in presence of NADPH by LC-MS analysis; assay type: ADME, Microsome; settings: read-out: CLH

FC(F)(F)c1ccc(N2CCC(Cn3c(C(F)(F)F)nc4ccccc43)CC2)cc1Cl
viability at 10 µM (HT-1080 [1]): < 50%

CN(C)C(=O)c1ccc(N2CCC(Cn3c(C(F)(F)F)nc4ccccc43)CC2)cc1
IC50 (HT-1080 [2]): 3.06 µM

COc1ccc(N2CCC(Cn3c(C(F)(F)F)nc4ccccc43)CC2)cc1Cl
viability at 10 µM (HT-1080 [1]): < 50%

CN(C)C(=O)c1ccc(N2CCC(Cn3cnc4c(C(F)(F)F)cccc43)CC2)cc1Cl
viability at 10 µM (HT-1080 [1]): < 50%

CC(C)c1ccc(N2CCC(Cn3c(C(F)(F)F)nc4ccccc43)CC2)cc1
viability at 10 µM (HT-1080 [1]): < 50%

COC(=O)c1ccc(N2CCC(Cn3c(C(F)(F)F)nc4ccccc43)CC2)cc1S(C)(=O)=O
IC50 (HT-1080 [2]): 6.64 µM

CN(C)C(=O)c1ccc(N2CCC(Cn3c(C(F)(F)F)nc4ccccc43)CC2)cc1F
IC50 (HT-1080 [2]): 2.11 µM

O=C(COc1ccc(Cl)cc1)N1CCC(Cn2c(C(F)(F)F)nc3ccccc32)CC1
IC50 (HT-1080 [2]): 3.16 µM

CCN(CC)C(=O)c1ccc(N2CCC(Cn3c(C(F)(F)F)nc4ccccc43)CC2)cc1
IC50 (HT-1080 [2]): 2.21 µM

CCN(CC)C(=O)c1ccc(N2CCC(Cn3c(C(F)(F)F)nc4ccccc43)CC2)cn1
IC50 (HT-1080 [2]): 3.46 µM

CN(C)C(=O)c1ccc(N2CCC(Cn3ccc4ccccc43)CC2)cc1Cl
viability at 10 µM (HT-1080 [1]): < 50%

CCOc1cccc(-c2nc3ccccc3n2CC2CCN(c3ccc(S(=O)(=O)N(C)C)cc3)CC2)c1
viability at 10 µM (HT-1080 [1]): < 50%

CN(C)C(=O)c1ccc(N2CCC(Cn3c(C(F)(F)F)nc4ccccc43)CC2)cc1Cl
IC50 (HT-1080 [2]): 2.53 µM

COC(=O)c1ccc([C@H]2c3[nH]c4ccccc4c3C[C@H](C(=O)OC)N2C(=O)CCl)cc1
inhibition [3]: Active

CCOc1ccccc1-n1c(C(C)N2CCN(C(=O)COc3ccc(Cl)cc3)CC2)nc2ccccc2c1=O (stereo not given) [ERASTIN]
half-life at 1 µM [4]: 4 min | microsomal CLint at 1 µM [5]: 400 µL/min/mg | inhibition [6]: Active | half-life at 1 µM [7]: 3.5 min | IC50 (HT-1080 [2]): 1.52 µM | microsomal CLint at 1 µM [8]: 349 µL/min/mg

CC(C)(C)c1ccc(N2CCC(Cn3c(C(F)(F)F)nc4ccccc43)CC2)cc1
viability at 10 µM (HT-1080 [1]): < 50%

COC(=O)c1ccc(N2CCC(Cn3c(C(F)(F)F)nc4ccccc43)CC2)cc1Cl
viability at 10 µM (HT-1080 [1]): < 50%

O=S(=O)(c1ccc(N2CCC(Cn3c(C(F)(F)F)nc4ccccc43)CC2)cc1)N1CCOCC1
half-life at 1 µM [4]: 11.7 min | microsomal CLint at 1 µM [5]: 187 µL/min/mg | half-life at 1 µM [7]: 7.4 min | IC50 (HT-1080 [2]): 1.89 µM | microsomal CLint at 1 µM [8]: 118 µL/min/mg

CN1C(=O)c2ccc(N3CCC(Cn4c(C(F)(F)F)nc5ccccc54)CC3)cc2C1=O
viability at 10 µM (HT-1080 [1]): < 50%

CCOc1ccccc1Cc1nc2ccccc2n1CC1CCN(c2ccc(S(=O)(=O)N(C)C)cc2)CC1
viability at 10 µM (HT-1080 [1]): < 50%

CC(C)Oc1ccc(N2CCC(Cn3c(C(F)(F)F)nc4ccccc43)CC2)cc1Cl
viability at 10 µM (HT-1080 [1]): < 50%

CN(C)c1ccc(C(=O)N2CCC(Cn3c(C(F)(F)F)nc4ccccc43)CC2)cc1
IC50 (HT-1080 [2]): 8.17 µM

FC(F)(F)c1nc2ccccc2n1CC1CCN(c2ccc(C3CCCCC3)cc2)CC1
viability at 10 µM (HT-1080 [1]): < 50%

O=C(c1ccc(N2CCC(Cn3c(C(F)(F)F)nc4ccccc43)CC2)cc1)N1CCCC1
half-life at 1 µM [4]: 13.2 min | microsomal CLint at 1 µM [5]: 164 µL/min/mg | half-life at 1 µM [7]: 8.6 min | IC50 (HT-1080 [2]): 1.49 µM | microsomal CLint at 1 µM [8]: 105 µL/min/mg

CN(C)C(=O)c1cccc(N2CCC(Cn3c(C(F)(F)F)nc4ccccc43)CC2)c1
viability at 10 µM (HT-1080 [1]): < 50%

CN(C)c1ccc(CC(=O)N2CCC(Cn3c(C(F)(F)F)nc4ccccc43)CC2)cc1
IC50 (HT-1080 [2]): 3.48 µM

CS(=O)(=O)c1cc(N2CCC(Cn3c(C(F)(F)F)nc4ccccc43)CC2)ccc1CO
IC50 (HT-1080 [2]): 7.47 µM

CN(C)S(=O)(=O)c1ccc(N2CCC(Cn3c(-c4ccccc4)nc4ccccc43)CC2)cc1
viability at 10 µM (HT-1080 [1]): < 50%

CN(C)C(=O)c1ccc(N2CCC(Cn3cnc4ccccc43)CC2)cc1Cl
viability at 10 µM (HT-1080 [1]): < 50%

CC(=O)Nc1ccc(N2CCC(Cn3c(C(F)(F)F)nc4ccccc43)CC2)cc1Cl
viability at 10 µM (HT-1080 [1]): < 50%

CCOc1ccccc1-c1nc2ccccc2n1CC1CCN(c2ccc(S(=O)(=O)N(C)C)cc2)CC1
viability at 10 µM (HT-1080 [1]): < 50%

FC(F)(F)c1nc2ccccc2n1CC1CCN(c2ccc(N3CCOCC3)c(Cl)c2)CC1
viability at 10 µM (HT-1080 [1]): < 50%
